The record followed here is article PMC8493801, “Exploring the Monoterpene Indole Alkaloid Scaffold for Reversing P-Glycoprotein-Mediated Multidrug Resistance in Cancer” (Pharmaceuticals, 2021).

T1 sequence (P08183 whole entry): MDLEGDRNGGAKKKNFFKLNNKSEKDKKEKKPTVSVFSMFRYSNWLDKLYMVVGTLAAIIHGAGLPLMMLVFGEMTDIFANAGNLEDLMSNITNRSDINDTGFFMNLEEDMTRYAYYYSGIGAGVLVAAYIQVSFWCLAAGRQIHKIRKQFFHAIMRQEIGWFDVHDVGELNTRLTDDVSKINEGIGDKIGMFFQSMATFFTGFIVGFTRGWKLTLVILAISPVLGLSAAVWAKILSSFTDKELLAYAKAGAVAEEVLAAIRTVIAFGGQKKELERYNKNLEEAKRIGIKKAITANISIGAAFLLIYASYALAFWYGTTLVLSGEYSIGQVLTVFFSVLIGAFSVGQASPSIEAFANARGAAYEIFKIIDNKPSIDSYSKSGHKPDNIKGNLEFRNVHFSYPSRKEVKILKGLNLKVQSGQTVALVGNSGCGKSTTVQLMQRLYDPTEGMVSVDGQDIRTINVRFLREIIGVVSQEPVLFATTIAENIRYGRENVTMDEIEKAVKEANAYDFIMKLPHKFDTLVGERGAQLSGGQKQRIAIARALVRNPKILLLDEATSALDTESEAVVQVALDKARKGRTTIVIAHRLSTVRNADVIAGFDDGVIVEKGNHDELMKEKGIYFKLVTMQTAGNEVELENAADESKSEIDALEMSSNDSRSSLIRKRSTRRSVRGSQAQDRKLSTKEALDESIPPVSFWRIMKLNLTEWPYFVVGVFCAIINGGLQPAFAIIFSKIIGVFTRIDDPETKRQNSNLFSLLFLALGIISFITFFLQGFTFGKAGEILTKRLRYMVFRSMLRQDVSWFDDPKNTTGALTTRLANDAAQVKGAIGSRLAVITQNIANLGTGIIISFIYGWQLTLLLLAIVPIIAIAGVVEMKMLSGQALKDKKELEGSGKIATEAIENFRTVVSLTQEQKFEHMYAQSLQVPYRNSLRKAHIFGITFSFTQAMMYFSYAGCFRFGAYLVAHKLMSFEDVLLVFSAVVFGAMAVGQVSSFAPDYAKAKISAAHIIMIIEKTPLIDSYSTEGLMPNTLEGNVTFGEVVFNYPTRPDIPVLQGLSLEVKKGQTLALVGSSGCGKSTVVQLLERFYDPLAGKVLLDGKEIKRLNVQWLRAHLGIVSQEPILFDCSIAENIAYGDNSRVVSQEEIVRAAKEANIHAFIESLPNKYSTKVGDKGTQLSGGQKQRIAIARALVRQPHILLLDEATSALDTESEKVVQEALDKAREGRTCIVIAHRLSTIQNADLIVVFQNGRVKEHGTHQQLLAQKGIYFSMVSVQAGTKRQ

One data set relates to human ABCB1-gene transfected L5178Y subline (MDR).
Test: not given
Conditions: not given
`CCC1CN(C)C2Cc3c([nH]c4ccccc34)C(=NN=Cc3ccc(N(C)C)cc3)CC1C2C(=O)OC` (stereo not shown) [Compound 12, 3-[(4″-(dimethylamino)benzylidene)hydrazineylidene]dregamine] displayed an IC50 of 7.42 ± 0.48 µM.

Consider `CCC1CN(C)C2Cc3c([nH]c4ccccc34)C(=NN=Cc3cc(OC)c(OC)c(OC)c3)CC1C2C(=O)OC` (stereo not shown) [Compound 17, 3-[(3″,4″,5″-trimethoxybenzylidene)hydrazineylidene]dregamine], for which the IC50 was 7.9 ± 0.44 µM.

Still in this data set, the particulars now being: RR ≤ 0.5 means CS effect.
Take `CCC1CN(C)C2Cc3c([nH]c4ccccc34)C(=NN=Cc3ccc(N(C)C)cc3)CC1C2C(=O)OC` (stereo not shown) [Compound 12, 3-[(4″-(dimethylamino)benzylidene)hydrazineylidene]dregamine]: the “RR (relative resistance ratio) = IC50MDR/IC50PAR” value worked out at 0.58.

Regarding `CCC1CN(C)C2Cc3c([nH]c4ccccc34)C(=NN=Cc3cc(OC)c(OC)c(OC)c3)CC1C2C(=O)OC` (stereo not shown) [Compound 17, 3-[(3″,4″,5″-trimethoxybenzylidene)hydrazineylidene]dregamine], the “RR (relative resistance ratio) = IC50MDR/IC50PAR” value is listed as 0.87.

The next data set concerns mouse embryonic fibroblasts (NIH/3T3). Briefly: MTT antiproliferative assay, non-cancer cells. It counts as cell-based. To be noted: IC50 NIH/3T3 / IC50 MDR. Here is the method: (§1) Non-cancer mouse embryonic fibroblasts (NIH/3T3) were also used.
In addition, the antiproliferative activity of the compounds was also evaluated on non-cancerous mouse embryonic fibroblast cells (NIH/3T3), whose values were compared with those of PAR and MDR cells by evaluation of the selective index (SI) values. […] The highest selective index values (SIC/A = 9.39; SIC/B = 10.79) were found for the derivative bearing the trimethoxyphenyl substituent (17).
(§2) L5178Y mouse T-lymphoma cells (ECACC catalog no. 87111908, US FDA, Silver Spring, MD, USA) were transfected with the pHa MDR1/A retrovirus as previously reported. The ABCB1 (P-gp) overexpressing cells were selected by culturing the infected cells with 60 ng/mL of colchicine (Sigma-Aldrich Chemie GmbH, Steinheim, Germany) to preserve the MDR phenotype. L5178Y (parental, PAR) mouse T-cell lymphoma cells and the human ABCB1-transfected subline were cultured in McCoy’s 5A supplemented with 10% heat-inactivated horse serum, 100 U/L L-glutamine, and 100 mg/L penicillin-streptomycin mixture, all obtained from Sigma-Aldrich. The mouse embryonic fibroblast (NIH 3T3) cell line was purchased from ATCC (CRL-1658) and was cultured in DMEM medium supplemented with 10% fetal bovine serum. These adherent cells were detached using 0.25% trypsin and 0.02% EDTA for 5 min at 37 °C. Before the antiproliferative assay using NIH 3T3 cell line, the cells were seeded in untreated 96-well flat bottomed microtiter plates, following a 4 h incubation period in a humidified atmosphere (5% CO2, 95% air) at 37 °C.
(In general: Formazan colour is commonly taken as a measure of viable cells.)
Regarding `CCC1CN(C)C2Cc3c([nH]c4ccccc34)C(=NN=Cc3ccc(N(C)C)cc3)CC1C2C(=O)OC` (stereo not shown) [Compound 12, 3-[(4″-(dimethylamino)benzylidene)hydrazineylidene]dregamine], the “SI C/B (Selectivity Index)” value turned out to be 1.91.

Take `CCC1CN(C)C2Cc3c([nH]c4ccccc34)C(=NN=Cc3cc(OC)c(OC)c(OC)c3)CC1C2C(=O)OC` (stereo not shown) [Compound 17, 3-[(3″,4″,5″-trimethoxybenzylidene)hydrazineylidene]dregamine]: the “SI C/B (Selectivity Index)” value came out at 10.79.

The data set is the same for the next values; noted with them: IC50 NIH/3T3 / IC50 PAR.
With `CCC1CN(C)C2Cc3c([nH]c4ccccc34)C(=NN=Cc3ccc(N(C)C)cc3)CC1C2C(=O)OC` (stereo not shown) [Compound 12, 3-[(4″-(dimethylamino)benzylidene)hydrazineylidene]dregamine], the “SI C/A (Selectivity Index)” value worked out at 1.10.

`CCC1CN(C)C2Cc3c([nH]c4ccccc34)C(=NN=Cc3cc(OC)c(OC)c(OC)c3)CC1C2C(=O)OC` (stereo not shown) [Compound 17, 3-[(3″,4″,5″-trimethoxybenzylidene)hydrazineylidene]dregamine]: the “SI C/A (Selectivity Index)” value was determined as 9.39.

Staying with this data set, now noted: NIH3T3; non-cancer mouse embryonic fibroblasts, MTT; read-out: IC50 NIH/3T3 (C).
On to `CCC1CN(C)C2Cc3c([nH]c4ccccc34)C(=NN=Cc3ccc(N(C)C)cc3)CC1C2C(=O)OC` (stereo not shown) [Compound 12, 3-[(4″-(dimethylamino)benzylidene)hydrazineylidene]dregamine], for which the IC50 turned out to be 14.2 ± 0.59 µM.

Consider `CCC1CN(C)C2Cc3c([nH]c4ccccc34)C(=NN=Cc3cc(OC)c(OC)c(OC)c3)CC1C2C(=O)OC` (stereo not shown) [Compound 17, 3-[(3″,4″,5″-trimethoxybenzylidene)hydrazineylidene]dregamine], for which the IC50 was determined as 85.2 ± 1.62 µM.

A further data set has as its target T1, recombinant human P-gp membranes (Homo sapiens, UniProt P08183).
T1 construct: purchased Promega
Kind of data set: P-gp ATPase activity assay (Pgp-Glo). It counts as biochemical. To be noted: 25 µM. The source says: Once it was established that ATP hydrolysis is directly associated with the P-gp efflux activity, the interaction mode between selected compounds (12, 17, 18, 20, and 29) and this transporter protein was further investigated using human P-gp membranes in the ATPase activity assay (P-gp-Glo^TM) to gather insights about their interaction with P-gp activity, namely, as stimulators or inhibitors. This ATPase activity assay is based on the ATP dependence of the light-generating reaction of firefly luciferase. After incubating P-gp with ATP, the reaction is stopped, and the ATP consumption by P-gp is given by a luciferase-generated luminescent signal due to the remaining unmetabolized ATP. Thus, a greater decrease in the signal means a higher P-gp activity.
Sodium orthovanadate (Vanadate, Na3VO4) is an inhibitor of P-gp ATPase activity; thus, after treating samples with vanadate, no P-gp-dependent ATP consumption is observed. Therefore, the P-gp basal ATP consumption (basal activity) is defined as the difference between the luminescent signal of samples treated with vanadate and untreated. Consequently, the tested compounds were ranked as stimulators or inhibitors by comparing their P-gp ATPase activity with the basal activity. Verapamil (0.5 mM), a known P-gp substrate and activator of the ATPase activity of this transporter, thus causing a decrease in the percentage of luminescence of luciferase when compared with untreated samples (Figure 2), was used as control. The results are represented in Figure 2 as the difference between the luminescence of luciferase observed when treated with the compounds and with vanadate in comparison with the basal activity (100%).
The P-glycoprotein ATPase activity was determined using the Pgp-Glo^TM Assay Systems Promega kit according to the manufacturer’s instructions. Briefly, 20 µL of recombinant human P-gp membranes (1.25 mg/mL), expressing high levels of human P-gp, were incubated in 20 µL of Pgp-Glo^TM assay buffer for 5 min at 37 °C. Compounds were tested at 25 µM sodium orthovanadate (Na3VO4, 0.25 mM) as an inhibitor control, verapamil as a substrate control (0.5 mM), and DMSO at 2% as solvent control. The reaction was initiated by adding 10 µL of 25 mM MgATP and incubated at 37 °C for 40 min. The ATPase reaction was stopped, and after adding 50 µL of ATP Detection Reagent, the samples were incubated at room temperature for 20 min. The luciferase-generated luminescent signal emitted was measured in a CLARIOstar Plus plate reader (BMG Labtech, UK) at 580 nm. The % of basal P-gp activity was calculated through the ratio between the luminescence measured of the P-gp ATPase activity of each compound and the basal activity according to Equation (4).
(4) % basal P-gp activity = LumNa3VO4−Lumtreated/LumNa3VO4−Lumuntreated×100%
Figure 2 Effect of compounds 12, 17, 18, 20, 29, and verapamil (VER) on P-gp ATPase activity. The compounds are identified as P-gp substrates if they stimulate its basal activity (>100%) or as modulators when inhibiting basal activity (<100%). Compounds were tested at 25 µM and verapamil at 0.5 mM. Results were calculated as the means ± SD from experiments performed in triplicates.
`CCC1CN(C)C2Cc3c([nH]c4ccccc34)C(=NN=Cc3ccc(N(C)C)cc3)CC1C2C(=O)OC` (stereo not shown) [Compound 12, 3-[(4″-(dimethylamino)benzylidene)hydrazineylidene]dregamine]: the “Effect on P-gp ATPase activity” value is “stimulating the P-gp activity”.

Regarding `CCC1CN(C)C2Cc3c([nH]c4ccccc34)C(=NN=Cc3cc(OC)c(OC)c(OC)c3)CC1C2C(=O)OC` (stereo not shown) [Compound 17, 3-[(3″,4″,5″-trimethoxybenzylidene)hydrazineylidene]dregamine], the “Effect on P-gp ATPase activity” value is “inhibitors of P-gp ATPase activity”.

The data set is the same for the next values; noted with them: 25 µM, basal activity = 100%.
In the case of `CCC1CN(C)C2Cc3c([nH]c4ccccc34)C(=NN=Cc3cc(OC)c(OC)c(OC)c3)CC1C2C(=O)OC` (stereo not shown) [Compound 17, 3-[(3″,4″,5″-trimethoxybenzylidene)hydrazineylidene]dregamine], the “% basal P-gp activity” value is on record as < 100%.

A further data set concerns sensitive L5178Y mouse T-lymphoma cells (PAR). Kind of data set: MTT antiproliferative assay, sensitive cells. The format is cell-based. As to conditions: 72 h, mean ± SD. Here is the method: as §1, §2
The assay was performed according to the previously applied experimental settings.
On to `CCC1CN(C)C2Cc3c([nH]c4ccccc34)C(=NN=Cc3ccc(N(C)C)cc3)CC1C2C(=O)OC` (stereo not shown) [Compound 12, 3-[(4″-(dimethylamino)benzylidene)hydrazineylidene]dregamine], for which the IC50 is 12.8 ± 0.16 µM.

In turn, `CCC1CN(C)C2Cc3c([nH]c4ccccc34)C(=NN=Cc3cc(OC)c(OC)c(OC)c3)CC1C2C(=O)OC` (stereo not shown) [Compound 17, 3-[(3″,4″,5″-trimethoxybenzylidene)hydrazineylidene]dregamine] yielded an IC50 of 9.07 ± 0.67 µM.

Another data set deals with human ABCB1-transfected L5178Y mouse lymphoma cells. Kind of data set: Checkerboard combination assay with doxorubicin. As to conditions: MDR cells. The format is cell-based. The arrangement: key to CI at ED50 (combination index): CI <1 synergy, =1 additive, >1 antagonism. Here is the method: The in vitro interactions between the compounds and the well-known antitumor drug and P-gp substrate, doxorubicin, were evaluated in a combination chemotherapy model on human ABCB1-transfected mouse T-lymphoma cells. The nature of drug–drug interactions was assessed by determination of the combination index (CI) using the Chou and Talalay method (Figure 1), and therefore evaluated as synergistic (CI < 1), additive (CI = 1), or antagonistic (CI > 1).
Doxorubicin (2 mg/mL, Teva Pharmaceuticals, Budapest, Hungary) was serially diluted horizontally in 100 µL as previously described, starting with 8.6 µM. The resistance modifier was subsequently diluted vertically in 50 µL; the starting concentration was determined based on the IC50. […] The checkerboard plates were kept for 72 h at 37 °C in a CO2 incubator, and at the end of the incubation period, the cell growth was determined by MTT staining method, as described earlier. Drug interactions were evaluated using Calcusyn software. Each dose–response curve (for individual agents as well as combinations) was fit to a linear model using the median effect equation in order to obtain the median effect value (corresponding to the IC50) and slope (m). The goodness-of-fit was assessed using the linear correlation coefficient, r, and only data from analysis with r > 0.90 were presented. The extent of interaction between drugs was expressed using the combination index, in which a CI value close to 1 indicates additivity, while a CI < 1 is defined as synergy and a CI > 1 as antagonism.
`CCC1CN(C)C2Cc3c([nH]c4ccccc34)C(=NN=Cc3ccc(N(C)C)cc3)CC1C2C(=O)OC` (stereo not shown) [Compound 12, 3-[(4″-(dimethylamino)benzylidene)hydrazineylidene]dregamine]: the Interaction entry is reported as “Strong Synergism”.

Turning to `CCC1CN(C)C2Cc3c([nH]c4ccccc34)C(=NN=Cc3cc(OC)c(OC)c(OC)c3)CC1C2C(=O)OC` (stereo not shown) [Compound 17, 3-[(3″,4″,5″-trimethoxybenzylidene)hydrazineylidene]dregamine], the Interaction result is “Synergism”.

Still in this data set, the particulars now being: best ratio, MDR cells.
Turning to `CCC1CN(C)C2Cc3c([nH]c4ccccc34)C(=NN=Cc3ccc(N(C)C)cc3)CC1C2C(=O)OC` (stereo not shown) [Compound 12, 3-[(4″-(dimethylamino)benzylidene)hydrazineylidene]dregamine], the “CI at ED50 (combination index)” value was 0.231.

On to `CCC1CN(C)C2Cc3c([nH]c4ccccc34)C(=NN=Cc3cc(OC)c(OC)c(OC)c3)CC1C2C(=O)OC` (stereo not shown) [Compound 17, 3-[(3″,4″,5″-trimethoxybenzylidene)hydrazineylidene]dregamine], for which the “CI at ED50 (combination index)” value worked out at 0.309.
